Data as given in US7868013B2, “Cycloalkyl substituted pyrimidinediamine compounds and their uses” (Rigel Pharmaceuticals, Inc., priority 2004, dated 2011).
Structures can show the parent of a compound that is named as a salt.

Assays:
[1] = system: A549 (lung carcinoma); assay: In vitro antiproliferation assay, A549 cells (TABLE 1 6 point assay; TABLE 2); format: cell-based; conditions: Homo sapiens, A549, A549 cells; 6 point assay; read-out: A549, 6pt (IC50, inhibition of proliferation)
Method: (§1) Certain compounds were tested against other cell types for their ability to inhibit proliferation in standard antiproliferation assays.

[2] = system: H1299 (non-small cell lung carcinoma); assay: In vitro antiproliferation assay, H1299 cells (TABLE 1 6 point assay; TABLE 2); format: cell-based; conditions: Homo sapiens, NCI-H1299, H1299 cells; 6 point assay; read-out: H1299, 6pt (IC50, inhibition of proliferation)
Method: as §1

Row | SMILES | IC50 [1] [µM] | IC50 [2] [µM]
1 | Cc1cc(Nc2ncc(F)c(N[C@@H]3[C@H](C(=O)NC(C)c4ccccc4)[C@H]4C=C[C@@H]3C4)n2)ccc1N1CCN(C)CC1 (stereo partly drawn) [compound 110, (1S,2S,3R,4R)-N4-5-Fluoro-N4-(3-(R)-alpha-methylbenzylaminocarbonylbicyclo[2.2.1]hept-5-en-2-yl)-N2-[3-methyl-4-(4-methylpiperazin-1-yl)phenyl]-2,4-pyrimidinediamine] | 0.1 to 1 | 0.1 to 1
2 | Cc1cc(Nc2ncc(F)c(N[C@H]3[C@@H](C(N)=O)[C@@H]4C=C[C@H]3C4)n2)ccc1N1CCN(C)CC1 [compound 121, (1R,2R,3S,4S)-N4-(3-Aminocarbonylbicyclo[2.2.1]hept-5-ene-2-yl)-5-fluoro-N2-[3-methyl-4-(4-methylpiperazin-1-yl)phenyl]-2,4-pyrimidinediamine Adipic Acid Salt] | ≤ 0.1 | ≤ 0.1
3 | Cc1cc(Nc2ncc(F)c(N[C@H]3[C@@H](C(N)=O)[C@@H]4C=C[C@H]3C4)n2)ccc1N1CCN(C)CC1 [compound 122, (1R,2R,3S,4S)-N4-(3-Aminocarbonylbicyclo[2.2.1]hept-5-en-2-yl)-5-fluoro-N2-[3-methyl-4-(4-methylpiperazin-1-yl)phenyl]-2,4-pyrimidinediamine Tartaric Acid Salt] | ≤ 0.1 | ≤ 0.1
4 | Cc1cc(Nc2ncc(F)c(N[C@H]3[C@@H](C(N)=O)[C@@H]4C=C[C@H]3C4)n2)ccc1N(C1CC1)C1CCN(C)CC1 [compound 123, (1R,2R,3S,4S)-N4-(3-Aminocarbonylbicyclo[2.2.1]hept-5-en-2-yl)-5-fluoro-N2-{4-[N-cyclopropyl-(1-methylpiperidin-4-yl)]-3-methylphenyl}-2,4-pyrimidinediamine] | ≤ 0.1 | ≤ 0.1
5 | COc1ccc(C(C)NC(=O)[C@H]2[C@@H](Nc3nc(Nc4ccc(N5CCN(C)CC5)c(C)c4)ncc3F)[C@@H]3C=C[C@H]2C3)cc1 (stereo partly drawn) [compound 124, (1S,2S,3R,4R)-5-Fluoro-N4-(3-(R)-4-methoxy-alpha-methylbenzylaminocarbonylbicyclo[2.2.1]hept-5-en-2-yl]-N2-(3-methyl-4-(4-methylpiperazin-1-yl)phenyl]-2,4-pyrimidinediamine] | 0.1 to 1 | 0.1 to 1
6 | NC(=O)[C@@H]1[C@H](Nc2nc(Nc3ccc(OC(F)(F)F)c(Cl)c3)ncc2F)[C@H]2C=C[C@@H]1C2 [compound 148, (1R,2R,3S,4S)-N4-(3-Aminocarbonylbicyclo[2.2.1]hept-5-en-2-yl)-N2-(3-chloro-4-trifluoromethoxyphenyl)-5-fluoro-2,4-pyrimidinediamine] | 1 to 10 | 1 to 10
7 | Cc1cc(Nc2ncc(F)c(N[C@@H]3[C@H](C(N)=O)[C@@H]4C=C[C@H]3C4)n2)ccc1N1CCN(C)CC1 [compound 154] | 0.1 to 1 | 0.1 to 1
8 | Cc1cc(Nc2ncc(F)c(N[C@H]3[C@@H](C(N)=O)[C@H]4C=C[C@@H]3C4)n2)ccc1N1CCN(C)CC1 [compound 155, (1S,2R,3S,4R)-N4-(3-Aminocarbonylbicyclo[2.2.1]hept-5-en-2-yl)-5-fluoro-N2-[3-methyl-4-(4-methylpiperazin-1-yl)phenyl]-2,4-pyrimidinediamine] | 1 to 10 | 1 to 10
9 | CN(C)CCN1CCc2cc(Nc3ncc(F)c(N[C@@H]4[C@H](C(N)=O)[C@H]5C=C[C@@H]4C5)n3)ccc21 [compound 187, (1S,2S,3R,4R)-N4-[3-Aminocarbonylbicyclo[2.2.1]hept-5-en-2-yl]-N2-[1-(2-dimethylaminoethyl)-2,3-dihydroindol-5-yl]-5-fluoro-2,4-pyrimidinediamine] | 1 to 10 | 1 to 10
10 | CS(=O)(=O)N1CCc2cc(Nc3ncc(F)c(N[C@H]4[C@@H](C(N)=O)[C@@H]5C=C[C@H]4C5)n3)ccc21 [compound 188, (1R,2R,3S,4S)-N4-(3-Aminocarbonylbicyclo[2.2.1]hept-5-en-2-yl)-5-fluoro-N2-[1-methylsulfonyl-2,3-dihydro-indol-5-yl]-2,4-pyrimidinediamine] | ≤ 0.1 | ≤ 0.1
11 | CN(C)CCN1CCOc2cc(Nc3ncc(F)c(N[C@H]4[C@@H](C(N)=O)[C@@H]5C=C[C@H]4C5)n3)ccc21 [compound 189, (1R,2R,3S,4S)-N4-(3-Aminocarbonylbicyclo[2.2.1]hept-5-en-2-yl)-5-fluoro-N2-(1-[2-(dimethylamino)ethyl]-3,4-dihydro-4H-benz[1,4]oxazin-6-yl}-2,4-pyrimidinediamine] | ≤ 0.1 | ≤ 0.1
12 | Cc1cc(Nc2ncc(F)c(N[C@@H]3[C@H](C(=O)NC4CC4)[C@H]4C=C[C@@H]3C4)n2)ccc1N1CCN(C)CC1 [compound 191, (1S,2S,3R,4R)-N4-[3-(N-Cyclopropyl)aminocarbonylbicyclo[2.2.1]hept-5-en-2-yl]-5-fluoro-N2-[3-methyl-4-(4-methylpiperazin-1-yl)phenyl]-2,4-pyrimidinediamine] | 0.1 to 1 | 1 to 10

Second part, the compound after the results:

Row | IC50 [1] [µM] | IC50 [2] [µM] | SMILES
13 | ≤ 0.1 | ≤ 0.1 | Cc1ccc(Nc2ncc(F)c(N[C@H]3[C@@H](C(N)=O)[C@@H]4C=C[C@H]3C4)n2)cc1OCCN1CCOCC1 [compound 115, (1R,2R,3S,4S)-N4-(3-Aminocarbonylbicyclo[2.2.1]hept-5-en-2-yl)-5-fluoro-N2-[4-methyl-3-(2-morpholinoethyloxy)phenyl]-2,4-pyrimidinediamine]
14 | ≤ 0.1 | ≤ 0.1 | Cc1cc(Nc2ncc(F)c(N[C@H]3[C@@H](C(N)=O)[C@@H]4C=C[C@H]3C4)n2)ccc1N1CCN(CCO)CC1 [compound 116, (1R,2R,3S,4S)-N4-(3-Aminocarbonylbicyclo[2.2.1]hept-5-en-2-yl)-5-fluoro-N2-{4-[4-(2-hydroxyethyl)piperazin-1-yl]-3-methylphenyl}-2,4-pyrimidinediamine]
15 | ≤ 0.1 | ≤ 0.1 | Cc1ccc(Nc2ncc(F)c(N[C@H]3[C@@H](C(N)=O)[C@@H]4C=C[C@H]3C4)n2)cc1OCC(=O)N1CCOCC1 [compound 125, (1R,2R,3S,4S)-N4-(3-Aminocarbonylbicyclo[2.2.1]hept-5-en-2-yl)-5-fluoro-N2-[4-methyl-3-(morpholin-4-ylcarbonylmethyleneoxy)phenyl]-2,4-pyrimidinediamine]
16 | ≤ 0.1 | ≤ 0.1 | CN1CCC(c2ccc(Nc3ncc(F)c(N[C@H]4[C@@H](C(N)=O)[C@@H]5C=C[C@H]4C5)n3)cc2)CC1 [compound 137, (1R,2R,3S,4S)-N4-(3-aminocarbonylbicyclo[2.2.1]hept-5-en-2-yl)-5-fluoro-N2-[4-(1-methylpiperidin-4-yl)phenyl]-2,4-pyrimidinediamine]
17 | ≤ 0.1 | ≤ 0.1 | CN1CCC(c2cccc(Nc3ncc(F)c(N[C@H]4[C@@H](C(N)=O)[C@@H]5C=C[C@H]4C5)n3)c2)CC1 [compound 145, (1R,2R,3S,4S)-N4-(3-Aminocarbonylbicyclo[2.2.1]hept-5-en-2-yl)-5-fluoro-N2-[3-(1-methylpiperidin-4-yl)phenyl]-2,4-pyrimidinediamine Mono- Hydrochloric Acid Salt]
18 | ≤ 0.1 | ≤ 0.1 | CN1CCC(Oc2ccc(Nc3ncc(F)c(N[C@H]4[C@@H](C(N)=O)[C@@H]5C=C[C@H]4C5)n3)cc2)CC1 [compound 146, (1R,2R,3S,4S)-N4-(3-Aminocarbonylbicyclo[2.2.1]hept-5-en-2-yl)-5-fluoro-N2-[4-(1-methylpiperidin-4-yloxy)phenyl]-2,4-pyrimidinediamine]
19 | ≤ 0.1 | ≤ 0.1 | CN1CCC(Oc2cccc(Nc3ncc(F)c(N[C@H]4[C@@H](C(N)=O)[C@@H]5C=C[C@H]4C5)n3)c2)CC1 [compound 149, (1R,2R,3S,4S)-N4-(3-Aminocarbonylbicyclo[2.2.1]hept-5-en-2-yl)-5-fluoro-N2-[3-(1-methylpiperidin-4-yloxy)phenyl]-2,4-pyrimidinediamine]
20 | ≤ 0.1 | ≤ 0.1 | Cc1cc(Nc2ncc(F)c(N[C@H]3[C@@H](C(N)=O)[C@@H]4C=C[C@H]3C4)n2)ccc1OC1CCN(C)CC1 [compound 150, (1R,2R,3S,4S)-N4-(3-Aminocarbonylbicyclo[2.2.1]hept-5-en-2-yl)-5-fluoro-N2-[3-methyl-4-(1-methylpiperidin-4-yloxy)phenyl]-2,4-pyrimidinediamine]
21 | ≤ 0.1 | ≤ 0.1 | CN1CCC(Oc2ccc(Nc3ncc(F)c(N[C@H]4[C@@H](C(N)=O)[C@@H]5C=C[C@H]4C5)n3)cc2C(F)(F)F)CC1 [compound 151, (1R,2R,3S,4S)-N4-(3-Aminocarbonylbicyclo[2.2.1]hept-5-en-2-yl)-5-fluoro-N2-[4-(1-methylpiperidin-4-yloxy)-3-trifluoromethylphenyl)-2,4-pyrimidinediamine]
22 | ≤ 0.1 | ≤ 0.1 | CN1CCC(Oc2ccc(Nc3ncc(F)c(N[C@H]4[C@@H](C(N)=O)[C@@H]5C=C[C@H]4C5)n3)cc2Cl)CC1 [compound 152, (1R,2R,3S,4S)-N4-(3-Aminocarbonylbicyclo[2.2.1]hept-5-en-2-yl)-N2-[3-chloro-4-(1-methylpiperidin-4-yloxy)phenyl]-5-fluoro-2,4-pyrimidinediamine]
23 | ≤ 0.1 | ≤ 0.1 | Cc1cc(Nc2ncc(F)c(N[C@H]3[C@@H](C(N)=O)[C@@H]4C=C[C@H]3C4)n2)ccc1OCC1CCN(C)CC1 [compound 153, (1R,2R,3S,4S)-N4-(3-Aminocarbonylbicyclo[2.2.1]hept-5-en-2-yl)-5-fluoro-N2-[4-(1-methylpiperidin-4-ylmethyleneoxy)-3-methylphenyl]-2,4-pyrimidinediamine]
24 | ≤ 0.1 | ≤ 0.1 | CN(C)CCN1CCc2cc(Nc3ncc(F)c(N[C@H]4[C@@H](C(N)=O)[C@@H]5C=C[C@H]4C5)n3)ccc21 [compound 186, (1R,2R,3S,4S)-N4-[3-Aminocarbonylbicyclo[2.2.1]hept-5-en-2-yl]-N2-[1-(2-dimethylaminoethyl)-2,3-dihydroindol-5-yl]-5-fluoro-2,4-pyrimidinediamine]
